{
  "source": "patent US11607417B2",
  "about": "“Uses of celastrol in preventing and/or treating cholestatic liver disease and liver fibrosis” (KUNMING INSTITUTE OF BOTANY, THE CHINESE ACADEMY OF SCIENCES, priority 2017, dated 2023)",
  "key": {"[1]": {"system": "TAA-induced cholestatic liver injury", "assay": "TAA-induced mouse cholestatic liver injury (Example 2)", "type": "in vivo, C57BL/6 mice", "experimental": "A total of 18 male C57BL/6 mice were divided into three groups: blank group (n=6); model group (n=6); treatment group (n=6).\nCelastrol was dissolved in a solvent to obtain a solution of celastrol at a concentration of 2 mg/mL, wherein the solvent consisted of 1% DMSO, 2% Tween, and 97% water (v:v:v). For intragastrical administration, the dosage of celastrol was 10 mg/kg·d. TAA was dissolved in 0.9% NaCl solution to prepare a NaCl solution of TAA at a concentration of […], and the dosage of TAA for intraperitoneal administration was 300 mg/kg.\nThe treatment group was administered intragastrically with the celastrol solution at a dosage of 10 mg/kg·d for 4 consecutive days. At the same time, the blank group and the model group were intragastrically administered with the same dosage of a solvent, wherein the solvent consisted of 1% DMSO, 2% Tween 80 and 97% water (v:v:v), and the solvent was administrated for 4 consecutive days.\nOn the 4th day, TAA model was established. 1 Hour after administration with the solvent or celastrol solution, the mice of the treatment group and the model group were respectively intraperitoneally injected with the NaCl solution of TAA at a dosage of 300 mg/kg to induce cholestatic liver injury. 24 Hours after treatment with TAA, the mice were sacrificed by CO2 anesthesia, and plasma samples and liver samples were collected. The eyeballs of the mice were taken for blood collection. The plasma samples were placed on ice for 1-2 hours, centrifuged at 4000 g for 5 minutes at 4° C., and the supernatant plasma samples were taken to determine the plasma biochemical indicators, the levels of ALT, AST and ALP.\nAt the same time, plasma samples were prepared: 10 μL of plasma sample was taken, mixed with 190 μL of 67% acetonitrile (containing 5 μM internal standard chlorpropamide), centrifuged at 18000 g for 20 minutes at 4° C., and the supernatant was taken for sample injection.\nLiver samples were prepared: 100 mg liver samples were mixed well with 1 mL of 50% acetonitrile (containing 5 μM internal standard chlorpropamide), shaken for 20 minutes at room temperature, and then centrifuged at 18000 g for 20 minutes at 4° C. Thereafter, 200 μL of the supernatant was taken and added with 200 μl of pure acetonitrile, vortexed for 1 minute, centrifuged at 18000 g for 20 minutes at 4° C., and the supernatant was taken for sample injection. The liquid chromatography conditions were as follows: the injection volume was 5 μL; the temperature of column was 45° C.; the flow rate of mobile phase was 0.3 mL/min; the gradient elution was that acetonitrile concentration changed from 2% to 98% during 16 minutes of operation, wherein the mobile phase (water/acetonitrile solution) contained 0.01% formic acid. The elution procedure was as follows: during 0-12th minute, the acetonitrile concentration changed from 2% to 98% at a constant rate; 12-14th minute, the acetonitrile concentration was maintained at 98%; 14-14.1th minute, the acetonitrile concentration changed from 98% to 2%; 14.1-16th minute, the acetonitrile concentration was maintained at 2%. Mass spectrometry conditions were as follows: the temperature of dry gas was 350° C., the pressure of nebulizer was 35 psi, and the voltage of capillary was 3.5 kV.\n(§1) Part of the collected mouse liver tissue was fixed overnight in formalin and tissue sections were stained with hematoxylin and eosin (H&E)."}, "[2]": {"system": "ANIT-induced cholestatic liver injury under SIRT1 inhibition", "assay": "Effect of SIRT1 inhibition (EX527) on celastrol activity in ANIT model (Example 3)", "type": "in vivo, C57BL/6 mice", "experimental": "A total of 24 male C57BL/6 mice were divided into four groups: blank group (n=6); model group (n=6); treatment group (n=6); and EX527 group (n=6).\nCelastrol was dissolved in a solvent to obtain a celastrol solution at a concentration of 2 mg/mL, wherein the solvent consisted of 1% DMSO, 2% Tween 80, and 97% water (v:v:v). For intragastrical administration, the dosage of celastrol was 10 mg/kg·d. ANIT was dissolved in corn oil to obtain a corn oil solution of ANIT at a concentration of 15 mg/mL, and the dosage of ANIT for intragastrical administration was 75 mg/kg. EX527 was dissolved in corn oil to obtain a corn oil solution of EX527 at a concentration of 2 mg/mL, and the dosage of EX527 for intraperitoneal injection was 10 mg/kg·d.\nThe EX527 group was simultaneously administrated with the celastrol solution and the EX527 corn oil solution for 5 consecutive days. The treatment group was administrated with the celastrol solution and an equal dosage of corn oil for 5 consecutive days. At the same time, the blank group and the model group were administrated with equal dosages of solvent (1% DMSO, 2% Tween 80 and 97% water (v:v:v)) and corn oil, and the solvent was administrated for 5 consecutive days.\nOn the 3rd day of administration, ANIT model was established. 4 Hours after administration, the mice in the model group, the treatment group and the EX527 group were respectively intraperitoneally injected with the ANIT corn oil solution at a dosage of 75 mg/kg for single administration to induce cholestatic liver injury, and the blank group was fed with an equal dosage of corn oil. After the model was established on the 3rd day of administration, the treatment group was continuously administrated with celastrol, the EX527 group was continuously administrated with celastrol and EX527, and the blank group and the model group were continuously administrated with the same dosage of solvent. 48 Hours after administration with ANIT, the mice were sacrificed by CO2 anesthesia, and mouse liver samples and plasma samples were taken. The eyeballs of the mice were taken for blood collection. The plasma samples were placed on ice for 1-2 hours, centrifuged at 4000 g for 5 minutes at 4° C., and the supernatants of the plasma samples were taken to determine plasma biochemical indicators, the levels of ALT, AST and ALP.\nAt the same time, plasma samples were prepared: 10 μL of plasma sample was taken, mixed well with 190 μL of 67% acetonitrile (containing 5 μM internal standard chlorpropamide), centrifuged at 18000 g for 20 minutes at 4° C., and the supernatant was taken for sample injection. The liquid chromatography conditions were as follows: the injection volume was 5 μL; the temperature of column was 45° C.; the flow rate of mobile phase was 0.3 mL/min; the gradient elution was that acetonitrile concentration changed from 2% to 98% during 16 minutes of operation, wherein the mobile phase (water/acetonitrile solution) contained 0.01% formic acid. The elution procedure was as follows: during 0-12th minute, the acetonitrile concentration changed from 2% to 98% at a constant rate; during 12-14th minute, the acetonitrile concentration was maintained at 98%; during 14-14.1th minute, the acetonitrile concentration changed from 98% to 2%; during 14.1-16th minute, the acetonitrile concentration was maintained at 2%. Mass spectrometry conditions were as follows: the temperature of dry gas was 350° C., the pressure of nebulizer was 35 psi, and the voltage of capillary was 3.5 kV.\nas §1"}, "[3]": {"conditions": "celastrol 10 mg/kg·d intragastric 4 days, TAA 300 mg/kg i.p. on day 4, 24 h after TAA, n=6"}, "[4]": {"conditions": "celastrol 10 mg/kg·d intragastric 4 days, TAA 300 mg/kg i.p., 24 h after TAA, n=6"}, "[5]": {"conditions": "treatment group: celastrol 10 mg/kg·d, P<0.05, FIG. 3E"}},
  "note": "Where “and” joins values, the source holds several entries; their conditions need not be identical. Equal values may be shown once.",
  "data": [
    {"smiles": "CC1=C(O)C(=O)C=C2C1=CC=C1[C@@]2(C)CC[C@@]2(C)[C@@H]3C[C@](C)(C(=O)O)CC[C@]3(C)CC[C@]12C", "note": "[celastrol, Celastrol]", "values": [
      {"measurement": "Liver weight of mouse when sacrificed", "setting": "[1]; [3]", "result": "1.55 g and 1.55 ± 0.21 g"},
      {"measurement": "Liver weight/body weight", "setting": "[1]; [3]", "result": "6.48% and 6.48 ± 0.93%"},
      {"measurement": "ALP in mouse plasma", "setting": "[1]; [4]", "result": "50.1 ± 7.8", "unit": "U/l"},
      {"measurement": "ALT in mouse plasma", "setting": "[1]; [4]", "result": "333.3 ± 211.3", "unit": "U/l"},
      {"measurement": "AST in mouse plasma", "setting": "[1]; [4]", "result": "920.3 ± 433.4", "unit": "U/l"},
      {"measurement": "H&E staining: area of liver necrosis in liver tissue", "setting": "[1]; celastrol 10 mg/kg·d intragastric, TAA model, FIG. 2C", "result": "significantly reduced"},
      {"measurement": "Levels of bile acids in plasma vs TAA model group", "setting": "[1]; ω-MCA, DCA, TβMCA/TαMCA, TCA, THDCA/TUDCA, TCDCA, TDCA, celastrol 10 mg/kg·d, FIG. 2D", "result": "significantly lower"},
      {"measurement": "Levels of bile acids in liver vs TAA model group", "setting": "[1]; ω-MCA, β-MCA, CA, DCA, TβMCA/TαMCA, TCA, GCA, TLCA, celastrol 10 mg/kg·d, FIG. 2E", "result": "significantly lower"},
      {"measurement": "Levels of bile acids in plasma vs model group", "setting": "[2]; CA, DCA, TβMCA/TαMCA, TCA, THDCA/TUDCA, treatment group: celastrol 10 mg/kg·d, FIG. 3F", "result": "significantly lower"},
      {"measurement": "H&E staining of mouse liver tissue", "setting": "[2]; treatment group: celastrol 10 mg/kg·d intragastric + corn oil, FIG. 3C", "result": "no obvious damage"},
      {"measurement": "ALP level in plasma vs model group", "setting": "[2]; [5]", "result": "lower"},
      {"measurement": "ALT level in plasma vs model group", "setting": "[2]; [5]", "result": "lower"},
      {"measurement": "AST level in plasma vs model group", "setting": "[2]; [5]", "result": "lower"}
    ]}
  ]
}
